In patent US7994329B2, “Growth hormone secretagogue receptor type 1A agonists” (Helsinn Therapeutics (U.S.), Inc., priority 2000, dated 2011):
Where two headings read alike, the source gives them in different places. Each block holds one molecule with its values, some of them ahead of it. No end group written: not given here.

How the values were obtained:
GHS-R 1A = target: T1, GHS-R 1A (Homo sapiens, UniProt Q92847); assay: Receptor binding assay, membranes of BHK/GHS-R 1A cells
T1 construct: expressed in transfected cells; host or cells: BHK cells, stably transfected
T1 sequence (Q92847 whole entry): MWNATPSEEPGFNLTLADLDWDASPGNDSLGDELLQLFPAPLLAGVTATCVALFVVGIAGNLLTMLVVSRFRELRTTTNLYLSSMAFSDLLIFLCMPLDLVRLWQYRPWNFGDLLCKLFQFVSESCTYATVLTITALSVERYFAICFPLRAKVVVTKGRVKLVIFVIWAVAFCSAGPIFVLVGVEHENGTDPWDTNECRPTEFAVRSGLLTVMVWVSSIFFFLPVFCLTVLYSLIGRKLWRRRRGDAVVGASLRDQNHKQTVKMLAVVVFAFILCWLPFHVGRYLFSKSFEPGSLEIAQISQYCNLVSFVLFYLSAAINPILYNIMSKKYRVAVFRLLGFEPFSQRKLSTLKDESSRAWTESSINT
Description: Briefly, crude membranes from stably transfected BHK/GHS-R 1A cells were suspended at 0.5 mg protein/ml in homogenization buffer (25 mM Tris-base, 2.5 mM EDTA, 10 mM MgCl2 and 30 μg/ml bacitracin). […] The filters were subsequently washed in 0.9% NaCl and counted using an Optiphase™ ‘HiSafe 3’ counter (Wallac, Turku, Finland).
Specific binding was determined as the difference between total binding and non-specific binding (binding in the presence of 10 μM unlabelled ligand). Binding curves were generated using either the non-linear regression or hyperbolic fit feature of the GraphPad™ Prism software package (GraphPad, San Diego, Calif., U.S.A.).

food intake = assay: Food intake in non-deprived male Wistar rats (feeding boxes); format: in vivo, rat; conditions: 3 hours after injection
Description: Food intake was measured in feeding boxes with standard chow and water placed on balances connected to a computer. Changes in weight of chow and water were continuously registered. Food and water intake were measured for 3 hours after drug injection during early daytime, when food intake is normally at a very low level.
The effect on feeding was tested after icy injections in non-deprived male Wistar rats. The compounds were dissolved in 5 μl saline and injected in the following doses: 10.0 μg per rat (NNC 26-1291) and 30.0 μg per rat (NN703 and NNC 26-1187).
Food intake was measured in feeding boxes, where standard chow and water were placed on balances and changes in weight continuously registered. Food and water intake was measured for 3 hours after drug injection in the beginning of the light part of the diurnal cycle, when food intake is normally at a very low level. […] For comparison, food intake in control animals is normally about 1 gram, and icy administration of 10 μg porcine neuropeptide Y (NPY), which has a strong effect on food intake, increases food consumption to about 8 grams in this model.
Non-deprived male Wistar rats (n=6-10) were used for the study, dosed with vehicle or with ghrelin at 10 μg/rat icy dissolved in 5 μl saline. Food intake was measured in conscious animals, using feeding boxes. Food and water intake were measured for 3 hours after drug injection during early daytime, when food intake is normally at a very low level. GH release was measured in Halothane-anaesthetized animals from which blood samples were obtained, before dosing and 10 min after dosing, via the orbital plexus. The plasma was analyzed for rat GH.

GH release [1] = assay: GH release in anaesthetized rats (plasma rat GH); format: in vivo
Description: Blood samples were obtained from anaesthetized animals before dosing, and either 10 min after dosing or by frequent blood sampling through a catheter up until 45 min after dosing. The plasma was analyzed for rat GH.
Non-deprived male Wistar rats (n=6-10) were used for the study, dosed with vehicle or with ghrelin at 10 μg/rat icy dissolved in 5 μl saline. […] GH release was measured in Halothane-anaesthetized animals from which blood samples were obtained, before dosing and 10 min after dosing, via the orbital plexus. The plasma was analyzed for rat GH.

GH release [2] = conditions: cited from earlier work
rat pituitary cells = assay: GH secretion from rat pituitary cells; format: cell-based
[3] = read-out: Binding affinity to the GHS-R 1A (Ki)

Ki (GHS-R 1A; [3]): 112 ± 29 nM
Molecule: CNC(=O)[C@@H](Cc1ccccc1)N(C)C(=O)[C@@H](Cc1ccc2ccccc2c1)N(C)C(=O)/C=C/CC(C)(C)N [NN703]
Food intake (food intake; 30.0 μg per rat icy): about 3 grams

Molecule: ghrelin (GSSFLSPEHQRVQQRKESKKPPAKLQPR; ends and bridges not checked; UniProt Q9UBU3 24-51, looked up) [peptide described by Kojima in Nature (1999), vol; 402, 656-660, reference compound]
GH release after icy administration (GH release [1]; ghrelin 10 μg/rat icy, Halothane-anaesthetized male Wistar rats, 10 min after dosing): did not stimulate GH release | Effect on food intake vs vehicle (food intake; 10 μg/rat icy): significant effect on feeding | GH release after iv administration (GH release [2]): causes stimulation of GH release

Molecule: CN(C)N(C)C(=O)C1(Cc2ccccc2)CCCN(C(=O)[C@@H](Cc2c[nH]c3ccccc23)NC(=O)C(C)(C)N)C1 (stereo partly drawn) [NNC 26-1291]
Ki (GHS-R 1A): 0.4 ± 0.06 nM

Molecule: Nc1ncnc2c1ncn2[C@@H]1O[C@H](CO)[C@@H](O)[C@H]1O [Adenosine, adenosine]
Stimulation of GH secretion from rat pituitary cells (rat pituitary cells): unable to stimulate GH secretion | GH release after intravenous (iv) administration (GH release [1]; adenosine 1 mg/kg iv, also 10 mg/kg iv in pentobarbital anaesthetized female SD rats): did not stimulate GH release | GH release after intracerebroventricular (icy) administration (GH release [1]; adenosine 10 and 100 μg/rat icy, Halothane anaesthetized male Wistar rats): did not stimulate GH release | Effect on food intake vs vehicle (food intake; 1 μg/rat icy): no effect | Effect on food intake vs vehicle (food intake; 10 μg/rat icy): food intake was significantly increased

Ki (GHS-R 1A; [3]): 22.2 ± 7 nM
Molecule: CN(CCc1ccccn1)C(=O)[C@@H](Cc1ccccc1)N(C)C(=O)[C@@H](Cc1ccc2ccccc2c1)N(C)C(=O)/C=C/CC(C)(C)N [NNC 26-1187]
